From patent publication US10961274B2, “Self-assembling peptides comprising non-ionic polar amino acids for anti-adhesion” (3-D Matrix, Ltd., priority 2015, dated 2021)
Values belong to the compound of their own block, whether it stands above or below them. Peptide text beside a SMILES is read from it.

Assays:
[1] = Atomic Force Microscopy (AFM) morphological study of peptide nano structures; type: physicochemical; conditions: 100 μM peptide solution on mica, air-dried, tapping mode
Procedure: Atomic Force Microscopy (AFM) images of ST14 and T14 peptides were investigated to visualize their nano structures. […] Each sample was left on the mica for about 30 seconds (s) and then rinsed with aliquots of 100 μl of Milli-Q (ultrapure) water to remove unattached peptides. The sample on the mica surface was then air-dried for AFM observation. AFM was performed with Asylum-1 MFP-3D AFM System (Asylum Research, Santa Barbara, Calif.) using a tapping mode. The images utilized an Olympus Si tip (AC240FS). The cantilever's free resonance frequency was 70 kHz.

[2] = Autoclave stability/sterilization, mass spectrometry before and after autoclave; type: physicochemical; conditions: 121° C. for 25 min, high pressure saturated steam; N-terminus and C-terminus not protected
Text: Sterilization is a very important step in the manufacturing process for all biomaterials, including the self-assembling peptide solutions.

[3] = Dissolution in deionized water and visual appearance of peptide solution; type: physicochemical
Procedure: ST14 and T14 were tested for dissolution in deionized water and appearance in solution at various concentrations.

[4] = pH of peptide solutions in deionized water; type: physicochemical
Procedure: The pH of the peptides in deionized water to provide a peptide solution were measured at various concentrations. […] ST14 and T14 were tested. The recorded pH values ranged from about 1.9 to about 2.5.

[5] = Congo Red assay of gel formation in PBS buffer (pH 7.4); type: physicochemical
Procedure: A Congo Red assay was performed to determine gel formation of peptide solutions in a PBS buffer solution (pH 7.4). 100 μl of each gel at varying concentrations were plated on a glass slide. After 30 seconds, 500 μl of a 1% Congo Red solution in PBS buffer (pH 7.4) was added around and on top of each of the gel aliquots and then the excess Congo Red solution was wiped off prior to examination.
ST14 and T14 were plated at varying concentrations of 0.5%, 1.0%, 1.5%, 2.0%, 2.5% and 5.0%. Visualization of gel formation determined the success or failure of gelation at each concentration.

[6] = Rheological properties at various concentrations (stress sweep, rheometer); type: physicochemical; conditions: 37° C.; for Loss Modulus (G′) / Storage Modulus (G′): at 1 Pa of oscillation stress; for Loss Modulus (G′) / Storage Modulus (G′) / Max. Viscosity (max η′) / Yield Stress: 10 rad/s; for Max. Viscosity (max η′) / Yield Stress: stress sweep
Procedure: The rheological properties of the ST14 were evaluated at various concentrations using a rheometer (AR500, TA Instruments) with 40 mm plates. Peptide solution (700 μL) was placed on the rheometer plate and excess solution was gently removed by Kimwipes; measurements were performed after 2 minutes of relaxation time at 37° C. The storage modulus, loss modulus, and viscosity (η′) were measured at 37° C. with the plates placed at a measuring geometry gap of 300 μm, and stress sweep tests were performed at 0.1 Pa˜1000 Pa of oscillation stress with angular frequency at 10 rad/s.

[7] = Effect of DMEM treatment on rheological properties (storage modulus); type: physicochemical; conditions: 1% peptide; DMEM (pH 7.4) for 2 minutes; 1 Pa, 10 rad/s; 37° C.
Procedure: The effects of Dulbecco's modified Eagle's medium (DMEM) (pH 7.4) on the rheological properties of ST14 were evaluated on a rheometer (AR500, TA Instruments) with 40 mm plates. DMEM is a cell culture medium that contains 6.4 g/L of NaCl, 3.4 g/L NaHCO3 (sodium bicarbonate), minor amounts of other salts, various amino acids, and 4.5 g/L of glucose. The pH of DMEM is 7.2±0.2 and the osmolality is 335±30 mOsm/Kg H2O; both measurements are close to human physiological fluids such as blood. Peptide solutions (1%) were kept in 4° C. for at least 48 hours before testing. To perform the experiment, 1 mL of peptide solution was gently pipetted and placed on the plate of the rheometer. 2 mL of DMEM solution was gently added around the peptide solution. The peptide solution was treated with DMEM for two minutes, then the media was removed, and the plates were placed at a measuring geometry gap at around 450 μm. Measurements were performed at 37° C. after 2 min of relaxation time. Frequency tests were performed from 1 rad/s to 100 rad/s at 1 Pa of oscillation stress.
The rheological properties of ST14 (1%) were compared before and after DMEM treatment for 2 minutes in FIG. 14. […]

[8] = test system: C57 BL/6 Mouse Mesenchymal Stem Cells (mMSCs); assay: Cell viability (cytotoxicity) assay in hydrogel drop cultures; type: cell-based; conditions: 5 million cells/ml, 10% sucrose, peptide concentration over 0.75% (tested 0.50% to 1.5%)
Procedure: A cell viability (cytotoxicity) assay was performed to measure the ability of ST14 o support the viability of C57 BL/6 Mouse Mesenchymal Stem Cells (mMSCs)—a frequently-used cell line in hydrogel tissue culture systems. The hydrogel was prepared at a concentration of 2.5% and then diluted to concentrations of 1.5%, 1.25%, 1.0%, 0.75%, and 0.50% with sucrose, so that the final concentration of sucrose was 10%. Cells were washed and re-suspended in 10% sucrose to a final concentration of 5 million cells/ml. Cells were centrifuged and the supernatant was removed. The cells were re-suspended in each of the concentrations of hydrogels in 10% sucrose. The protocol was then followed for plating drop cultures and subsequent isolation as described in the PuraMatrix® Guidelines for Use (BD/Corning website).

[9] = concentration 0.5% in deionized water
[10] = concentration 1.0% in deionized water
[11] = concentration 1.5% in deionized water
[12] = concentration 2.0% in deionized water
[13] = concentration 2.5% in deionized water

SMILES: CC(O)C(NC(=O)C(CO)NC(=O)C(NC(=O)C(CO)NC(=O)C(NC(=O)C(CO)NC(=O)C(NC(=O)C(CO)NC(=O)C(NC(=O)C(CO)NC(=O)C(NC(=O)C(CO)NC(=O)C(NC(=O)C(N)CO)C(C)O)C(C)O)C(C)O)C(C)O)C(C)O)C(C)O)C(=O)O (stereo not drawn) [ST14] (H-STSTSTSTSTSTST-OH; configuration not given here)
AFM morphology (nano structure) [1]: forms self-assembled nanofibers
degradation during autoclave treatment (mass spec) [2]: did not degrade
appearance of solution in deionized water ([3]; 1 percent w/v to 5 percent w/v): translucent
thickness of solution in deionized water ([3]; 1 percent w/v to 5 percent w/v): formed thick solutions
pH [4, 9]: 2.5
pH [4, 10]: 2.2
pH [4, 11]: 2.1
pH [4, 12]: 2.0
pH [4, 13]: 1.9
gel formation (Congo Red) ([5]; 0.5%): did not form a gel
Loss Modulus (G′) ([6]; Concentration 1): 11.4 Pa
Storage Modulus (G′) ([6]; Concentration 1): 67 Pa
Max. Viscosity (max η′) ([6]; Concentration 1): 1.2 Pa-s
Yield Stress ([6]; Concentration 1): 5.0 Pa
Loss Modulus (G′) ([6]; Concentration 1.5): 9.8 Pa
Storage Modulus (G′) ([6]; Concentration 1.5): 94 Pa
Max. Viscosity (max η′) ([6]; Concentration 1.5): 1.5 Pa-s
Yield Stress ([6]; Concentration 1.5): 7.9 Pa
Loss Modulus (G′) ([6]; Concentration 2): 17.3 Pa
Storage Modulus (G′) ([6]; Concentration 2): 136 Pa
Max. Viscosity (max η′) ([6]; Concentration 2): 2.0 Pa-s
Yield Stress ([6]; Concentration 2): 10.0 Pa
Loss Modulus (G′) ([6]; Concentration 2.5): 17.1 Pa
Storage Modulus (G′) ([6]; Concentration 2.5): 167 Pa
Max. Viscosity (max η′) ([6]; Concentration 2.5): 2.2 Pa-s
Yield Stress ([6]; Concentration 2.5): 15.9 Pa
storage modulus, yield stress, and max. viscosity versus concentration ([6]; concentrations 1 to 2.5): increased with increasing concentration
fold increase of storage moduli after DMEM treatment [7]: 6.9 fold
cell viability [8]: significantly decreased

AFM morphology (nano structure) [1]: Aggregates have been detected
degradation during autoclave treatment (mass spec) [2]: did not degrade
appearance of solution in deionized water ([3]; 1 percent w/v to 5 percent w/v): translucent
thickness of solution in deionized water ([3]; 5 percent w/v): formed a thick solution
pH [4, 9]: 2.5
pH [4, 10]: 2.3
pH [4, 11]: 2.2
pH [4, 12]: 2.1
pH [4, 13]: 2.0
gel formation (Congo Red) ([5]; below 1%): did not form a gel
SMILES: CC(O)C(N)C(=O)NC(C(=O)NC(C(=O)NC(C(=O)NC(C(=O)NC(C(=O)NC(C(=O)NC(C(=O)NC(C(=O)NC(C(=O)NC(C(=O)NC(C(=O)NC(C(=O)NC(C(=O)O)C(C)O)C(C)O)C(C)O)C(C)O)C(C)O)C(C)O)C(C)O)C(C)O)C(C)O)C(C)O)C(C)O)C(C)O)C(C)O (stereo not drawn) [Peptide T14]
